# Data taken from US20250205256A1 (GH RESEARCH IRELAND LIMITED, priority 2022, published 2025).
# What was measured:
# [1] = system: patients with treatment-resistant major depressive disorder (TRD); test: Phase 1/2 clinical trial of inhaled 5-MeO-DMT in TRD: BPRS items; format: in vivo, human; settings: for BPRS Emotional Withdrawal score: baseline 13
# Text: Patients were assigned to different groups.
# The BPRS item that is of particular relevance to negative thinking is “guilt feelings”. This item relates to over concern or remorse for past behaviour. Possible scores are: • 1—No guilt feelings. • 2—Very Mild. Concerned about having failed someone or at something but not preoccupied. Can shift thoughts to other matters easily. • 3—Mild. Concerned about having failed someone or at something with some preoccupation. Tends to voice guilt to others. • 4—Moderate. Disproportionate preoccupation with guilt, having done wrong, injured others by doing or failing to do something, but can readily turn attention to other things. • 5—Moderately Severe. Preoccupation with guilt, having failed someone or at something, can turn attention to other things, but only with great effort. Not delusional. • 6—Severe; Delusional guilt or unreasonable self-reproach very out of proportion to circumstances. Moderate preoccupation present. • 7—Extremely Severe. Delusional guilt or unreasonable self-reproach grossly out of proportion to circumstances. Subject is very preoccupied with guilt and is likely to disclose to others or act on delusions.
# This trial was designed in two parts.
# [2] = system: patient with postpartum depression (PPD); test: Clinical trial of inhaled 5-MeO-DMT in postpartum depression: safety and tolerability; format: in vivo, human; settings: PPD n=1
# Text: (§1) The patient completed all planned visit days.
# [3] = system: Escherichia coli strain WP2 uvrA pKM101; test: Bacterial mutation test, Escherichia coli; format: cell-based; settings: up to 5000 μg/plate, absence and presence of rat liver S-9
# Description: These conditions included treatments at concentrations up to 5000 μg/plate (the maximum recommended concentration according to current regulatory guidelines), in the absence and in the presence of a rat liver metabolic activation system (S-9).
# [4] = system: patient with postpartum depression (PPD); test: Clinical trial of inhaled 5-MeO-DMT (IDR, 6 mg then 12 mg) in postpartum depression: BPRS; format: in vivo, human; settings: PPD n=1
# Text: as §1
# [5] = system: patients with treatment-resistant major depressive disorder (TRD); test: Phase 1/2 clinical trial of inhaled 5-MeO-DMT in TRD: safety and tolerability
# Description: This trial was designed in two parts. Part A was an open-label, single-arm, single-dose Phase 1 trial with two dose levels (12 mg (n=4) and 18 mg (n=4)). […] The primary endpoint of Part B was to assess the effects on the severity of depression, as assessed by the proportion of patients in remission on day seven after dosing, defined as a MADRS total score of less than or equal to 10.
# [6] = Pharmacokinetics after single inhaled dose of 5-MeO-DMT (LC-MS/MS); format: in vivo, human
# Description: Blood samples were obtained at 1; 2; 4; 7; 10; 15; 20; 30; 45 min and 1; 1.5; 2; 3; 4 hours after administration.
# PK parameters were generated by algebraic analysis of the concentration versus time plots for each individual. The analysis was carried out using the software Phoenix WinNonlin 6.3.
# [7] = 12 mg n=4 sum, 3 h after dose vs baseline
# [8] = 12 mg n=4 sum, Day 1 vs baseline
# [9] = 12 mg n=4 sum, Day 7 vs baseline
# [10] = IDR n=8 sum, 3 h after last dose vs baseline
smiles,measurement,setting,value
COc1ccc2[nH]cc(CCN(C)C)c2c1 [5-MeO-DMT],BPRS Anxiety improvement,[1]; [7],14
same,BPRS Blunted Affect improvement,[1]; [7],3
same,BPRS Emotional Withdrawal improvement,[1]; [7],2
same,BPRS Guilt Feelings improvement,[1]; [7],9
same,BPRS Guilt Feelings percentage improvement,[1]; [7],50.00%
same,BPRS Tension improvement,[1]; [7],5
same,BPRS Blunted Affect score,"[1]; 12 mg n=4 sum, 3 h after dose, baseline 11",8
same,BPRS Emotional Withdrawal score,"[1]; 12 mg n=4 sum, 3 h after dose",11
same,BPRS Tension score,"[1]; 12 mg n=4 sum, 3 h after dose, baseline 14",9
same,BPRS Guilt Feelings score,"[1]; 12 mg n=4 sum, 3 h after dose, baseline 18",9
same,BPRS Anxiety score,"[1]; 12 mg n=4 sum, 3 h after dose, baseline 25",11
same,BPRS Blunted Affect score,"[1]; 12 mg n=4 sum, Day 1, baseline 11",6
same,BPRS Emotional Withdrawal score,"[1]; 12 mg n=4 sum, Day 1",8
same,BPRS Tension score,"[1]; 12 mg n=4 sum, Day 1, baseline 14",6
same,BPRS Guilt Feelings score,"[1]; 12 mg n=4 sum, Day 1, baseline 18",5
same,BPRS Anxiety score,"[1]; 12 mg n=4 sum, Day 1, baseline 25",6
same,BPRS Anxiety improvement,[1]; [8],19
same,BPRS Blunted Affect improvement,[1]; [8],5
same,BPRS Emotional Withdrawal improvement,[1]; [8],5
same,BPRS Guilt Feelings improvement,[1]; [8],13
same,BPRS Tension improvement,[1]; [8],8
same,BPRS Blunted Affect score,"[1]; 12 mg n=4 sum, Day 7, baseline 11",5
same,BPRS Emotional Withdrawal score,"[1]; 12 mg n=4 sum, Day 7",6
same,BPRS Tension score,"[1]; 12 mg n=4 sum, Day 7, baseline 14",6
same,BPRS Guilt Feelings score,"[1]; 12 mg n=4 sum, Day 7, baseline 18",5
same,BPRS Anxiety score,"[1]; 12 mg n=4 sum, Day 7, baseline 25",6
same,BPRS Anxiety improvement,[1]; [9],19
same,BPRS Blunted Affect improvement,[1]; [9],6
same,BPRS Emotional Withdrawal improvement,[1]; [9],7
same,BPRS Guilt Feelings improvement,[1]; [9],13
same,BPRS Tension improvement,[1]; [9],8
same,BPRS Anxiety improvement,[1]; [10],18
same,BPRS Blunted Affect improvement,[1]; [10],4
same,BPRS Emotional Withdrawal improvement,[1]; [10],5
same,BPRS Guilt Feelings improvement,[1]; [10],20
same,BPRS Tension improvement,[1]; [10],5
same,BPRS Emotional Withdrawal score,"[1]; IDR n=8 sum, 3 h after last dose",8
same,BPRS Blunted Affect score,"[1]; IDR n=8 sum, 3 h after last dose, baseline 15",11
same,BPRS Tension score,"[1]; IDR n=8 sum, 3 h after last dose, baseline 16",11
same,BPRS Guilt Feelings score,"[1]; IDR n=8 sum, 3 h after last dose, baseline 34",14
same,BPRS Anxiety score,"[1]; IDR n=8 sum, 3 h after last dose, baseline 37",19
same,BPRS Emotional Withdrawal score,"[1]; IDR n=8 sum, Day 1",8
same,BPRS Blunted Affect score,"[1]; IDR n=8 sum, Day 1, baseline 15",8
same,BPRS Tension score,"[1]; IDR n=8 sum, Day 1, baseline 16",11
same,BPRS Guilt Feelings score,"[1]; IDR n=8 sum, Day 1, baseline 34",11
same,BPRS Anxiety score,"[1]; IDR n=8 sum, Day 1, baseline 37",16
same,BPRS Anxiety improvement,"[1]; IDR n=8 sum, Day 1 vs baseline",21
same,BPRS Blunted Affect improvement,"[1]; IDR n=8 sum, Day 1 vs baseline",7
same,BPRS Emotional Withdrawal improvement,"[1]; IDR n=8 sum, Day 1 vs baseline",5
same,BPRS Guilt Feelings improvement,"[1]; IDR n=8 sum, Day 1 vs baseline",23
same,BPRS Tension improvement,"[1]; IDR n=8 sum, Day 1 vs baseline",5
same,BPRS Emotional Withdrawal score,"[1]; IDR n=8 sum, Day 7",8
same,BPRS Blunted Affect score,"[1]; IDR n=8 sum, Day 7, baseline 15",8
same,BPRS Tension score,"[1]; IDR n=8 sum, Day 7, baseline 16",10
same,BPRS Guilt Feelings score,"[1]; IDR n=8 sum, Day 7, baseline 34",10
same,BPRS Anxiety score,"[1]; IDR n=8 sum, Day 7, baseline 37",17
same,BPRS Anxiety improvement,"[1]; IDR n=8 sum, Day 7 vs baseline",20
same,BPRS Blunted Affect improvement,"[1]; IDR n=8 sum, Day 7 vs baseline",7
same,BPRS Emotional Withdrawal improvement,"[1]; IDR n=8 sum, Day 7 vs baseline",5
same,BPRS Guilt Feelings improvement,"[1]; IDR n=8 sum, Day 7 vs baseline",24
same,BPRS Tension improvement,"[1]; IDR n=8 sum, Day 7 vs baseline",6
same,"reported adverse events (cramping left abdominal pain and headache, Day 0)",[2],"mild, short-lasting and resolved spontaneously"
same,tolerability of inhalation procedure,[2],well tolerated with no inhalation-related adverse events
same,"ECG, safety laboratory analyses, CADSS","[2]; ECG 3 hours, laboratory 7 days, CADSS 3 hours, 1 day and 7 days",unremarkable
same,changes in vital parameters,[2]; shortly after administration,"temporary, clinically non-relevant increase in heart rate and blood pressure"
same,induction of mutation,[3],did not induce mutation
same,BPRS Tension improvement,[4]; Day 1 vs baseline,5
same,BPRS Tension improvement,[4]; Discharge vs baseline,5
same,"changes in safety laboratory analyses, vital signs, psychiatric safety assessments or measures of cognitive function",[5]; Part A and Part B,No clinically significant changes
same,severity and outcome of ADRs,"[5]; Part A, 12 mg and 18 mg groups",mild and resolved spontaneously
same,patients experiencing at least one ADR,"[5]; Part A, 12 mg single dose, n=4",3 of 4
same,patients experiencing at least one ADR,"[5]; Part A, 18 mg single dose, n=4",3 of 4
same,SAEs,"[5]; Part B, IDR",No SAEs were reported
same,outcome of ADRs,"[5]; Part B, IDR",All ADRs resolved spontaneously
same,patients experiencing at least one ADR,"[5]; Part B, IDR, 7 of 8 patients",87.5%
same,detectability in plasma,"[6]; 3 hours after inhalation, whole dose range",no longer detectable
same,pharmacokinetic measurements under uptitration dosing schemes,[6]; compared with single doses,Substantially similar results were obtained
same,accumulation upon repeated administration,[6]; repeat within 1 to 4 hours,No accumulation is observed
